Reference: ChEMBL document CHEMBL1124462, “Synthesis, DNA binding, and biological evaluation of synthetic precursors and novel analogues of netropsin” (J Med Chem, 1989)
Values after ≈ are worked out from the molar mass of the structure shown.

The molecules below were run on Vaccinia virus (assay: Minimum inhibitory concentration required to reduce vaccinia virus induced cytopathogenicity by 50% in primary rabbit kidney cells (PRK)). Details: Orthopoxvirus vaccinia.
Assay type: functional
For `CC(NC(=O)c1cc(NC(=O)c2cc(NC(=O)CNC(=N)N)cn2C)cn1C)C(=O)O` (centres undefined), the MIC was > 200 µg/mL. For `C[C@H](NC(=O)c1cc(NC(=O)c2cc(NC(=O)CNC(=N)N)cn2C)cn1C)C(=O)N[C@@H](C)C(=O)N[C@@H](C)C(=O)OC(C)(C)C`, the MIC was > 100 µg/mL. In the case of `Cn1cc([N+](=O)[O-])cc1C(=O)NCCCNCCCCN`, the MIC is reported as > 200 µg/mL. `Cn1cc(NC(=O)c2cc([N+](=O)[O-])cn2C)cc1C(=O)NCCC(=N)N` was tested, and the MIC was > 100 µg/mL. With `Cn1c(C(=O)O)ccc1[N+](=O)[O-]` the MIC was > 200 µg/mL. With `CC(NC(=O)c1cc(NC(=O)c2cc([N+](=O)[O-])cn2C)cn1C)C(=O)OC(C)(C)C` (centres undefined) the MIC was > 40 µg/mL. In the case of `Cn1c(C(=O)NCCC#N)ccc1[N+](=O)[O-]`, the MIC is reported as > 200 µg/mL. For `Cn1cc(NC(=O)c2cc([N+](=O)[O-])cn2C)cc1C(=O)NCCCNCCCCN`, the MIC was > 200 µg/mL. In the case of `Cn1cc([N+](=O)[O-])cc1C(=O)NCCC#N`, the MIC is reported as > 200 µg/mL. `COC(=O)c1cc(NC(=O)c2cc([N+](=O)[O-])cn2C)cn1C` was tested, and the MIC was > 10 µg/mL. `CC(NC(=O)C(C)NC(=O)c1cc(NC(=O)c2cc(NC(=O)CNC(=N)N)cn2C)cn1C)C(=O)O` (centres undefined) was tested, and the MIC was > 400 µg/mL. With `CC(NC(=O)c1cc(NC(=O)c2cc([N+](=O)[O-])cn2C)cn1C)C(=O)NC(C)C(=O)OC(C)(C)C` (centres undefined) the MIC was > 100 µg/mL. `C[C@H](NC(=O)[C@H](C)NC(=O)[C@H](C)NC(=O)c1cc(NC(=O)c2cc(NC(=O)CNC(=N)N)cn2C)cn1C)C(=O)O` was tested, and the MIC was > 400 µg/mL. In the case of `C[C@H](NC(=O)c1cc(NC(=O)c2cc([N+](=O)[O-])cn2C)cn1C)C(=O)N[C@@H](C)C(=O)N[C@@H](C)C(=O)OC(C)(C)C`, the MIC is reported as > 100 µg/mL. With `Cn1cc([N+](=O)[O-])cc1C(=O)NCCC(=N)N` the MIC was > 200 µg/mL. `Nc1ncnc2c1ncn2C[C@H](O)CO` [(S)-DHPA] gave an MIC of 70 µg/mL (≈ 335 µM). With `Cn1cc(NC(=O)c2cc([N+](=O)[O-])cn2C)cc1C(=O)O` the MIC was > 400 µg/mL. In the case of `Cn1c(C(=O)NCCC(=N)N)ccc1[N+](=O)[O-]`, the MIC is reported as > 100 µg/mL. For `Cn1cc(NC(=O)c2cc([N+](=O)[O-])cn2C)cc1C(=O)NCCC#N`, the MIC was > 10 µg/mL. `CC(NC(=O)c1cc(NC(=O)c2cc(NC(=O)CNC(=N)N)cn2C)cn1C)C(=O)OC(C)(C)C` (centres undefined) showed an MIC of 150 µg/mL (≈ 307 µM). In the case of `COC(=O)c1ccc([N+](=O)[O-])n1C`, the MIC is reported as > 400 µg/mL. Work on `Nc1nccc2c1ncn2[C@@H]1C[C@H](CO)[C@@H](O)[C@H]1O` [3-DEAZAARISTEROMYCIN A] yielded an MIC of 2 µg/mL (≈ 7.57 µM). `NC(=O)c1ncn([C@@H]2O[C@H](CO)[C@@H](O)[C@H]2O)n1` [RIBAVIRIN] gave an MIC of 2 µg/mL (≈ 8.19 µM). For `Cn1cc(NC(=O)CNC(=N)N)cc1C(=O)NCCCNCCCCN`, the MIC was > 400 µg/mL. In the case of `CC(NC(=O)c1cc(NC(=O)c2cc(NC(=O)CNC(=N)N)cn2C)cn1C)C(=O)NC(C)C(=O)OC(C)(C)C` (centres undefined), the MIC is reported as > 200 µg/mL. Work on `Nc1ncnc2c1ccn2[C@@H]1O[C@H](CO)[C@@H](O)[C@H]1O` [TUBERCIDIN] yielded an MIC of 0.07 µg/mL (≈ 0.263 µM). In the case of `Cn1cc([N+](=O)[O-])cc1C(=O)O`, the MIC is reported as > 400 µg/mL. `Cn1cc(NC(=O)c2cc(NC(=O)CNC(=N)N)cn2C)cc1C(=O)NCCCNCCCCN` was tested, and the MIC was > 200 µg/mL. Work on `Cn1cc(NC(=O)c2cc(NC(=O)CNC(=N)N)cn2C)cc1C(=O)NCCC(=N)N` [NETROPSIN] yielded an MIC of 70 µg/mL (≈ 163 µM).
